Laboratory results taken from US20180356397A1, “MIMICRY OF NEUROINFLAMMATORY MICROENVIRONMENTS AND METHODS OF USE AND MANUFACTURING THEREOF” (priority 2017, published 2018).

Tests used:
[1] = tested on: neutrophils co-cultured with A-beta activated microglia; assay: neutrophil recruitment toward soluble A-beta activated microglia (co-culture in microfluidic device); format: cell-based, human; details: for recruiting of neutrophils in the recapitulated AD environment: microglia-derived chemokines by A-beta stimulation; for higher neutrophil migration in central chamber: soluble A-beta 2.2 uM, 6 hours
Description: Microglial cells are resident brain immune cells and stimulated by soluble A-beta42, which is a signature of human AD neurotoxic peptide. Based on our previous observation of neutrophil accumulation on A-beta plaques in in vivo, we hypothesize that A-beta activated microglial cells has a critical role in recruiting neutrophil. Stimulated microglial cells can release various types of chemokines and/or cytokines to increase inflammatory behavior or to clear A-beta in inflamed region. Furthermore, those secreted chemokines and/or cytokines can recruit other cell types including peripheral immune cells (FIG. 9A). To modulate this whole process, we established an in vitro AD brain-blood model (ADBBM) using microglia and neutrophil to mimic the brain microenvironment. To accommodate the different cells separately in a single microfluidic platform, we employed mechanically separated two chambers, which are connected through neutrophil specific migration channels (10×5×500 μm in width, height, and length) forming gradients of chemokines and/or cytokines (FIG. 9B).
Compared to a parallel configuration having equal surface areas for cell loading and cell collection, the asymmetric configuration of the current microfluidic device 10 has a small central cell collecting compartment (central chamber 30), which is smaller than a large annular cell loading compartment (annular chamber 50) by a factor of 3, 4, 5, 6, 7, 8, 9, 10 or greater. […] This enhances the gradient formation and detection of recruitment. The long and thin migration channels 60 can block spontaneous entrance of inactivated neutrophil through mechanical constraints. Using this platform, we could culture microglial cells for extended periods to accumulate enough soluble factors and could observe neutrophil signature movement at single cell resolution, in real-time. Red membrane dye stained microglial cells plated first in central chamber 30 and incubated for 3 days with soluble A-beta to modulate chemokine/cytokine enriched AD microenvironment. Freshly isolated neutrophil labeled with green membrane dye plated on annular chamber 50 and incubated under microscope to observe their movement and accumulation in central chamber 30. Precise numbers of neutrophils are reproducibly loaded and uniformly distributed in annular chamber 50 and this design allows us to evaluate the response of neutrophil to various types of chemokines and/or cytokines. We tested 200 independent conditions at the same time, by using real time imaging of process in an array of twenty-five formatted on a single well plate 140 or an array of one-hundred nineteen formatted single well plate 140 (FIG. 7 and FIG. 8).
To validate the dependency of neutrophil migration toward soluble A-beta activated microglia, microglial cells plated on central chamber 30 with various cell numbers (5,000, 10,000, 20,000 cells). Microglial cells are pre-labeled with membrane dye according to manufacturer's protocol to observe their morphology change. After 24 hour incubation of microglia alone, prepared soluble A-beta (2.2 uM) with reduced 1% FBS Prigrowlll media were changed to incubate further for 48 hours. After 48 hours, freshly isolated neutrophil labeled with green membrane dye plated on annular chamber 50 and incubated on microscopic real time imaging chamber. Neutrophil (green) migration could be observed toward soluble A-beta activated microglia (red) cultured central chamber 30 after 6 hours (FIG. 11A). 2.4-, 1.2-times higher neutrophil migration could be observed in central chamber 30 in response to 10,000 and 20,000 cultured microglia in central chamber 30 by showing the dependency of neutrophil recruitment in cell numbers. […] By utilizing high-resolution and spatiotemporal controlled microscopic imaging method, we also can quantify the persistent movement of microglial cells in various stimulations. […]

human neutrophils = assay: microfluidic chemotactic model for neutrophil migration (platform validation with fMLP); format: cell-based; details: for neutrophils migrated back from chemoattractant / neutrophils migrated towards chemoattractant: persistence at 1 hour
Method: FIG. 10F. Neutrophil recruitment was quantified by comparing the fraction of cells inside the central chamber (CC) to the total number of cells in the corresponding angular chamber device (AC). The R.I. is calculated as R.I.=(CCDay i−CCDay 0)/ACDay i, where Day i is the number of cells in the central chamber and ADDay i is the number of cells in angular chamber. The recruitment index, R.I., is obtained by normalizing with the subtraction at ‘CCDay 0’ cell numbers.
We validated the assay by measuring the migration and accumulation of neutrophils toward a panel of known chemoattractant. To compare the effect of fMLP in various concentrations on neutrophil recruitment, we defined a neutrophil recruitment index, R.I. (FIG. 10B, FIG. 10F), representing the fraction of neutrophil recruited to the central chamber after loading fMLP in the central chamber. We compared the R.I. values under various soluble factors, (fMLP, A-beta, and media) (FIG. 10B) and could observe predominant neutrophil (green) recruitment with N-formyl-methionine-leucine-phenylalanine (fMLP) (10 nM) in central chamber 30 after 6 hours (FIG. 10A). A negligible number of cells entered central chamber in the absence of a chemoattractant by proving that the mechanical barrier 40 can exclude the spontaneous entrance of neutrophil. […] Neutrophils move through migration channels 60 at 18±5 μm/min and could reach central chamber in less than 30 min (FIG. 10G). We compared the migratory response of human neutrophils with various stimulators. […] Concentration-dependent changes in migration patterns in response to fMLP was primarily affect the migrating faction while there was no significant effect on persistent directionality.
(§1) Immortalized microglial cells (SV40-microglia) were purchased from Abm company (ABM Inc., Montreal, Canada). The cells were plated onto T25 cell culture flasks (BD Biosciences, San Jose, Calif., USA) and maintained in Prigrow III Medium (ABM Inc) supplemented with 50 mL FBS (Life Technologies) and 5 mL Pen/Strep (Invitrogen) in a CO2 cell culture incubator. Cell culture media were changed every 3 days until cells were confluent. For neutrophil isolation, human peripheral blood samples from healthy volunteers, aged 18 years and older, were purchased from InvivoGen. Peripheral blood was drawn in 10-ml tube containing a final concentration of 5 mM EDTA (Vacutainer; Becton Dickinson). Nucleated cells were isolated using a HetaSep gradient, followed by the EasySep Human Neutrophil Enrichment Kit (STEMCELL Technologies, Vancouver, Canada) according to the manufacturer's protocol.
After microglia loading, cells were recorded using time-lapse imaging using a fully automated Nikon TiE microscope with a heated incubator to 37° C. and 5% CO2 (10× magnification; Micro Device Instruments, Avon, Mass., USA). To achieve accurate cell tracking, the maximum time resolution of acquisition was 0.2 frames per second.
FIG. 10. Design and validation of a microfluidic chemotactic model for neutrophil migration. (10A) Neutrophils (green) instantly migrated along microchannels designed for neutrophils with a gradient of fMLP (10 nM) and accumulated in a central chamber, the source of fMLP. (10C) Time-lapse images show a simultaneous bi-directional migration of neurophils under the fMLP gradient on a single cellular level. The red arrows indicate persistent forward migration of neutrophils along the gradient of the chemoattractant and green arrows indicate the backward migration against the gradient. […] Combined data from n=5 independent experiments. Scale bars: (10A) 500 μm, (10C) 50 μm. Data represented as mean±SEM.

microglia = assay: A-beta stimulation of microglia and analysis of cytokine release / activation markers; format: cell-based, human
Description: To characterize the phenotype changes in microglia induced by soluble A-beta, individual microglial cells were monitored for three days using time-lapse imaging microscopy. […] Morphological changes could be observed at 48 hrs following cell seeding (FIG. 9C bottom, +A-beta). As determined by image analysis, microglial cells became large and switched into more amoeboid type as the length and area of microglial somata (cell bodies) increased in all direction (FIG. 9C). And filopodia, which is observed in resting mode microglia, could not be observed in A-beta stimulated microglia. Furthermore, exposure of microglia to soluble A-beta induced up-regulation of microglial activation markers such as CD11b (FIGS. 9D and 9E) and CD68 (FIG. 9F). […] Membrane stained microglial cells (red) immunostained with anti-CD68 to observe activation of microglial cells with A-beta.
As microglia are the predominant resident immune cells of the brain, we next determined the effects of the soluble A-beta AD microenvironment on the inflammatory activity of microglia. Exposure to soluble A-beta was associated with significant increases in chemokine release (FIG. 9B).
as §1
For immunofluorescent stain, we rinsed the cells in medium twice with DPBS. To fix, cells were incubated in fresh 4% paraformaldehyde aqueous solution (157-4, ElectronMicroscopy Sciences) for more than 15 minutes at RT followed by rinsing twice with DPBS. To permeabilize, cells were incubated in 0.1% Triton X-100 in PBST (phosphate buffered saline with 0.1% tween®20) for 15 minutes at RT. To block, cells were incubated in 3% human serum albumin for overnight in PBST at 4° C. After incubating with the primary antibody solutions for 24 hour at 4° C., the cells were washed five times. The following antibody (and dilutions) were used: anti-cd11b (1:100, Life Technologies).
Microfluidic devices 10 were cultured for 72 hours, followed by incubation in A-beta containing medium with fetal bovine serum reduced from 10% to 1%. Microglia culture on central chamber 30 were stimulated with A-beta (Sigma Aldrich) at 2.2 uM with […] serum for 72 hrs. The cytokine release profile was assayed with the Human Cytokine 37-membrane kit array (R&D systems) and the resulting cytokine release profiles were quantified with ImageJ analysis.
FIG. 9. Activation of microglial inflammation with A-beta: chemokine release, morphogenesis, and marker expression. […] Both the membrane area (9D) and the amounts of expressed CD11b (9E) increase in the activated microglia with A-beta. ndevice=3, ncell=150. Scale bars: 30 μm. All parameters are presented as mean±SEM.

human primary microglial = assay: microfluidic chemotaxis platform for microglial motility under soluble A-beta gradient; format: cell-based; details: soluble monomeric and oligomeric A-beta, picomolar to nanomolar concentrations
Description: Activated microglia initially take on various morphologies: rounded, ramified shapes, rods to amoeboid forms followed by motile activation, which complicates the visual tracking of individual cells. Previous in vitro attempts to study rat microglial migration in the presence of short-lived damaged axons could not establish long-lasting gradients and could not conclusively differentiate slow accumulation of microglia from heterogeneous activation and random navigation. We developed a novel, microfluidic chemotaxis platform to study the motility of those microglia selectively responding to stimuli in a regulated manner. To understand the specific roles of A-beta in microglial accumulation in the context of AD, we generated a week-long lasting soluble A-beta gradient, patterned insoluble surface-bound A-beta to mimic A-beta signature in AD brains, and isolated human primary microglial responding to A-beta in our platforms. We tested 200 independent conditions in a single batch, while using real time imaging of process in an array of twenty-five formatted single well plate. […] We also observed discernable co-localization of microglia to the sites of insoluble A-beta, representing A-beta plaques.

U87 glioma line = assay: glioma migration/invasiveness in microfluidic device, alone or in co-culture with microglia; format: cell-based; details: glioma cells cultured alone
Description: Here, we reconstituted a microenvironment of boosted brain tumor invasion by inducing glioma migration by using EGF, a chemoattractant for glioma, and promoting the migration via the incorporation with microglia. We plated both glioma and microglia on the outer chamber and EGF in the central chamber, which are connected through migration channels (50×10×500 μm in width, height, and length) forming gradients of chemokines for glioma. We found PAI-1 is abundantly expressed on most glioma lines. Next, we culture the U87 glioma line, which has produced PAI-1, to investigate the hypothesis that glioma-secreted PAI-1 interacts with microglia to affect glioma migration. In co-culture with microglia in a microfluidic device, the invasiveness of PAI-1 expressing U87 cell lines was increased. […] This study has uncovered a mechanism by which glioma cells exploit microglia for increased invasiveness. Specifically, glioma-derived PAI-1 acts upon microglia, which then produces IL-6 to stimulate gliomas. The PAI-1/IL-6 loop is a potential therapeutic target for the currently incurable malignant gliomas.

[2] = microglia exposed to soluble A-beta compared to microglia without A-beta

## CCL2: microglia-derived chemokine released on A-beta stimulation
[1]
  recruiting of neutrophils in the recapitulated AD environment: effective for recruiting neutrophils

## IL8: microglia-derived chemokine released on A-beta stimulation
[1]
  recruiting of neutrophils in the recapitulated AD environment: effective for recruiting neutrophils

## N-formyl-methionine-leucine-phenylalanine [fMLP]
Human neutrophils; 1 nM fMLP
  neutrophils migrated back from chemoattractant: 17.8±2.8%
  neutrophils migrated towards chemoattractant: 82.2±3.4%
Human neutrophils; 10 nM fMLP compared to 1 nM fMLP, central chamber, 6 hours
  magnitude of cell recruitment (recruitment index), 10 nM compared to 1 nM: 1.6 times
Human neutrophils; 10 nM fMLP
  neutrophils migrated back from chemoattractant: 11.5±1.7%
  neutrophils migrated towards chemoattractant: 88.5±3.8%
Human neutrophils; fMLP in central chamber
  time to plateau of neutrophil response: ≤ 6 h
Human neutrophils; increasing fMLP from 10 nM to 1 μM
  decrease in the total fraction of migrating cells: 63%
Human neutrophils; migrating towards fMLP
  speed of neutrophils moving through migration channels: 18±5 μm/min
  time to reach central chamber: less than 30 min

## amyloid-beta [A-beta]
microglia; exposure of microglia to soluble A-beta, immunostaining
  microglial activation markers CD11b and CD68: up-regulation
microglia; microglia exposed to soluble A-beta
  secretion of anti-inflammatory markers (IL-1RA, IL-4, IL-10, TGF-β): very low or no detectable
microglia; [2]
  CCL2 concentration increase: 1.4 fold
  IL-6 concentration increase: 1.9 fold
  IL-8 concentration increase: 2.3 fold
  chemokine release of CCL3/4, CCL5: new chemokine release
[1]; 10,000 microglia in central chamber
  higher neutrophil migration in central chamber: 2.4 times
[1]; 20,000 microglia in central chamber
  higher neutrophil migration in central chamber: 1.2 times
[1]; A-beta alone, no microglia
  neutrophil migration: Negligible neutrophil migration
[1]; co-culture with soluble A-beta activated microglial cells
  persistence of neutrophil migration: about 92%
Human primary microglial
  microglial chemoattraction: acting as a microglial chemoattractant

## IL6: interleukin (IL)-6; microglia-derived cytokine, also used as recombinant protein
U87 glioma line
  invasiveness of glioma cells: enhanced the invasiveness
[1]
  recruiting of neutrophils in the recapitulated AD environment: effective for recruiting neutrophils

B1: CCL5: microglia-derived chemokine released on A-beta stimulation (protein, UniProt P13501 24-91, looked up)
C-C motif chemokine 5: SPYSSDTTPCCFAYIARPLPRAHIKEYFYTSGKCSNPAVVFVTRKNRQVCANPEKKWVREYINSLEMS
[1]
  recruiting of neutrophils in the recapitulated AD environment: effective for recruiting neutrophils
